Assay results reported in patent US12594271B2, “Combination therapy for cancer” (Health Research, Inc., priority 2019, dated 2026).
Entries after “also recorded” stand apart in the source; their conditions may differ.

Experiments:
[1] = test system: myeloid cells and T cells of 4T1 tumor-bearing mice; test: Flow cytometry of spleen, bone marrow and tumor cells from 4T1 tumor-bearing mice; type: in vivo
Protocol: FIG. 1. […] (A) 4T1 growth in mice treated daily with BRQ (10 mg/kg, i.p.), anti-PD-1 ([…], i.p. at the indicated 3 or 4 times) or both agents. n=5 mice/group/experiment for upper and lower graphs; *P<0.01 against single-agent treatments. B-D, data shown are for analysis of A, upper graph. (B) Spontaneous metastatic lung counts; *P<0.01. Similar patterns seen in the 2nd experiment (avg. #mets): vehicle=12; BRQ=1; αPD-1=5; combo=1. (C) Splenic granulocytic (CD11b^+Ly6C^loLy6G^+) or monocytic (CD11b^+Ly6C^hiLy6G^−) numbers in non-tumor-bearing (NTB) or tumor-bearing mice were converted to a ratio for group-by-group comparison; *P<0.03. (D) Splenic CD3^+ T cell numbers in tumor-bearing mice. (E) Splenic CD8^+ T cells in A (lower graph) were assayed based on differential expression of CD44:naïve ([…]) vs. effector/central memory (hi) phenotypes. *P<0.03. Data reported as a ratio to indicate a rising memory pool. Data in B-E are at endpoint; ns, not significant.
Treatment of Tumor-Bearing Mice Alters Surface Phenotype of Myeloid Cells. […] Female BALB/c or C57BL/6 mice were orthotopically implanted with 4T1 or AT-3 mammary tumor cells, respectively, and were monitored 3 times weekly for tumor growth. When tumors became measurable (indicated by the arrow), BRQ was administered daily (10 mg/kg intraperitoneally), and at endpoint the BM cells or spleens were collected for flow cytometric analysis for the expression (i.e., percentage or MFI value) of the indicated cell surface markers (FIGS. 13-15). We extended our in vitro studies with BRQ to […] to determine the impact of BRQ on MDSC maturation. To that end, mice bearing orthotopically implanted mammary tumors were treated with or without BRQ in vivo using a similarly previously reported dose, frequency and schedule (Sykes et al. Cell 167:171-186, 2016). The first tumor model chosen was 4T1, which is an aggressive mammary tumor cell line that induces a robust MDSC response largely comprised of PMN-MDSCs.
The upper panels of FIG. 14 are representative flow cytometry plots of the non-tumor-bearing (NTB) or tumor-bearing cohorts without (vehicle) or with BRQ. The middle panel histogram represents CD101 expression on the gated (boxed) populations of the upper panels. In this case, the far-right histograms refer to the gated-boxed right dot plot (for the PMN or granulocytic subset), whereas the gated-boxed left histogram refers to the gated-boxed upper left dot plot (for the monocytic subset). […] FIG. 15 refers to the quantification of the CD101 data from non-tumor-bearing mice or tumor-bearing mice with or without BRQ, based on both the CD101 MFI values and the percentages of CD101^+ (or high-expressing) cells reflecting the monocytic subset (upper left histogram and middle left table) or the PMN-MDSC subset (upper right histogram and middle right table). The quantification appears in the lower left and right graphs. Each point represents an individual mouse.
Effect of Treatment of Tumor-Bearing Mice with BRQ on the Efficacy of Anti-Tumor Immunotherapy. […] At endpoint, BM cells or spleens were collected and analyzed for the indicated populations by flow cytometry. These experiments sought to determine whether BRQ can act in the bone marrow environment. […] The frequency of these cells approached levels seen in the non-tumor-bearing controls. […] Moreover, analysis of the systemic impact of BRQ on T cell numbers and their activation/memory state was performed on splenic population at endpoint (FIG. 20). […] This analysis at the time was not performed on cohorts treated with anti-PD-1 mAb alone or the combination, since the intent was to focus on the effect of BRQ on T cell numbers and their phenotypic states.
Treatment of Tumor-Bearing Mice with BRQ Increases the Proliferative Capacity and Activation of Intra-Tumoral T Cells. Experimental design is as described in FIG. 12. […]

[2] = test system: IRF8; test: qRT-PCR in Lin- BM cells cultured 2 days; type: cell-based, mouse; details: bone marrow cells cultured with BRQ, normalized to vehicle
Protocol: (§1) FIG. 2. […] (A) MDSCs were produced in vitro from mouse bone marrow cells using GM-CSF and G-CSF±BRQ (1 μM) or ATRA (10 μM) at the start of the 4-day culture. Cells tested for their ability to inhibit T cell proliferation (1:1 ratio), as in FIG. 5. Fresh BM=Uncultured bone marrow cells. (B) Similar to A, except that uridine (200 μM) was added to rescue the effect of BRQ. (C) Expression of IRF8 (upper) or SLFN4 (lower) was analyzed by qRT-PCR in Lin^− BM cells cultured as in A for 2 days. Data normalized to the vehicle.

[3] = test system: SLFN4; test: qRT-PCR in Lin- BM cells cultured 2 days; type: cell-based, mouse; details: bone marrow cells cultured with BRQ, normalized to vehicle
Protocol: as §1

[4] = test system: E0771; test: E0771 mammary tumor model: bone marrow multi-spectral flow cytometry; type: in vivo; details: endpoint
Protocol: BRQ Alters the Bone Marrow Myeloid Compartment in Triple Negative Breast Cancer Model. This study was performed in another mammary tumor model, termed E0771. The experimental design is as described in FIG. 12 and bone marrow cells were collected at endpoint, as in FIG. 19 for flow cytometric analysis. Here, BM samples were analyzed by multi-spectral high dimensional flow cytometry using a Cytek Aurora Spectral Flow Cytometer and the data are illustrated as a TSNE plot (i.e, t-distributed Stochastic Neighbor). Circled regions refer to the data of interest.

[5] = 4T1, BRQ 10 mg/kg i.p. daily, spleen
[6] = 4T1 tumor-bearing mice, endpoint

SMILES: Cc1c(-c2ccc(-c3ccccc3F)cc2)nc2ccc(F)cc2c1C(=O)O [BRQ, 6-Fluoro-2-(2′-fluoro-[1,1′-biphenyl]-4-yl)-3-methylquinoline-4-carboxylic acid]
- CD101 expression on splenic granulocytic populations ([1]; 4T1, BRQ 10 mg/kg i.p. daily): significantly increased CD101 expression
- accumulation of the granulocytic population in the spleen ([1]; 4T1, BRQ 10 mg/kg i.p. daily): did not significantly alter
- Ly6C expression on granulocytic cells [1, 5]: significantly higher expression of the cell surface Ly6C
- Ly6G expression on granulocytic cells [1, 5]: trended upward but did not reach statistical significance
- tumor-driven expansion of myeloid progenitor populations GMP or GP in bone marrow ([1]; 4T1, endpoint): reduced tumor-driven expansion
- accumulation of CD11b+Gr-1+ cells in bone marrow ([1]; 4T1, vs vehicle controls): reduced the accumulation of CD11b^+Gr-1^+ cells
- splenic granulocyte to monocyte ratio ([1]; 4T1 tumor-bearing mice vs non-tumor-bearing controls, endpoint): significantly altered the granulocyte to monocyte ratio resembling the non-tumor-bearing controls
- splenic CD3+ T cell numbers [1, 6]: did not alter; also recorded: no negative effect
- splenic CD8+ T cell memory populations (ratio of memory to naïve T cells by CD44) [1, 6]: did not alter; also recorded: no negative effect
- CD44 expression on intratumoral CD8+ and CD4+ T cells ([1]; tumor tissue at endpoint): Increases in CD44 expression were similarly observed
- proliferative capacity of intratumoral CD8+ and CD4+ T cells (percentages of Ki-67+ cells) ([1]; tumor tissue at endpoint): significant increases in the proliferative capacity
- IRF8 expression [2]: increase in IRF8 expression
- SLFN4 expression [3]: reciprocal decrease in SLFN4 expression
- frequency of granulocyte progenitors (GPs) in bone marrow [4]: reduced the frequency of granulocyte progenitors
- frequency of monocyte progenitors (MPs) in bone marrow [4]: increased the frequency of monocyte progenitors
